Test results taken from US20170252442A1, “PHOTOHEXER COMPOUNDS AND PHARMACEUTICAL COMPOSITION AND USE THEREOF” (RAINBOW PHARMATECH LLC, priority 2014, published 2017).

Tests used:
MCF-7 cells = experiment: MTT assay, photodynamic therapy on MCF-7 cells; type: cell-based, human
Source text: (§1) The cells in logarithmic growth phase were collected and inoculated on 24-well culture plates. When reaching 70%-80% confluence, cells were divided randomly into the following groups: control (the parallel control group without photosensitizer and irradiation), irradiation (irradiation treatment alone without photosensitizer); (photosensitizer treatment alone without irradiation), photodynamic treatment (treatment by photosensitizer in combination with irradiation). For the photosensitizer alone treatment group and photodynamic treatment group, an appropriate amount of Photohexer-1 (P-1) or Photohexer-2 (P-2) was respectively added away from light to give a final concentration of 0.8, 1.6, 3.2, 6.4 μM. Each group set 3 replicates. Cells were incubated with the active agent, different treatments were carried out according to the grouping. […] After treatment and digestion of each group of cells, it was inoculated into a 96-well plate at 100 μL/well, and four wells were set for each treatment. MTT assay was performed after 24 h from inoculation: 20 μL MTT solution was added to each well under the condition away from light, and the culture was continued for 4 hours. 150 μL DMSO was added to each well after discarding the supernatant. After 15 min of dissolution, the absorbance value (OD value) was measured using a microplate reader and the relative survival rate of cells was calculated according to the following formula: […]

SGC7901 cells = experiment: MTT assay, photodynamic therapy on SGC7901 cells; type: cell-based, human
Source text: as §1

4T1 transplanted tumors = experiment: Tumor-inhibition effect of P1 and P2-PDT on 4T1 xenografted mice; type: in vivo, Balb/c mice
Protocol: Experimental groups: blank control (2 mice), P-1 alone treatment (4 mg/kg, 8 mice), P-2 alone treatment (2 mg/kg, 8 mice), P-1 treatment (2 mg/kg, 4 mg/kg, 8 mice/group) combined with light irradiations, P-2 treatment (1 mg/kg, 2 mg/kg, 4 mg/kg, 8 mice/group) combined with light irradiations, 66 Balb/c mice in total.

7721 cells = experiment: MTT assay, photodynamic therapy on 7721 cells; type: cell-based, human
Source text: as §1

[1] = Storage stability determination; type: physicochemical; conditions: 3 months of storage in dark at 2-4
Protocol: The storage stability of Photohexer-1 and Photohexer-2 was determined by conventional methods in the art.

[2] = Solubility determination in water; type: physicochemical; conditions: each ml of water; room temperature; read-out: solubility in water (amount dissolved by each ml of water)
Protocol: The solubility of Photohexer-1 and Photohexer-2 in water was determined by conventional methods in the art.

[3] = 0.8 μM combined with 10.4 J/cm^2 light irradiation
[4] = 1.6 μM alone treatment, without irradiation
[5] = 1.6 μM combined with 2.6 J/cm^2 light irradiation
[6] = 1.6 μM combined with 5.2 J/cm^2 light irradiation
[7] = 1.6 μM combined with 10.4 J/cm^2 light irradiation
[8] = 3.2 μM alone treatment, without irradiation
[9] = 3.2 μM combined with 2.6 J/cm^2 light irradiation
[10] = 3.2 μM combined with 5.2 J/cm^2 light irradiation
[11] = 3.2 μM combined with 10.4 J/cm^2 light irradiation
[12] = 6.4 μM alone treatment, without irradiation
[13] = 6.4 μM combined with 2.6 J/cm^2 light irradiation
[14] = 6.4 μM combined with 5.2 J/cm^2 light irradiation
[15] = 6.4 μM combined with 10.4 J/cm^2 light irradiation
[16] = 0.8 μM alone treatment, without irradiation
[17] = 0.8 μM combined with 2.6 J/cm^2 light irradiation
[18] = 0.8 μM combined with 5.2 J/cm^2 light irradiation

Q: For `C=CC1=C(C)c2cc3[nH]c(cc4nc(cc5[nH]c(cc1n2)c(C)c5CCC(=O)[O-])C(CCC(=O)[O-])=C4C)c(C)c3C(C)OCCCCCC.[Na+].[Na+]` (stereo not shown) [Photohexer P-1, 2-(1-hexyloxyethyl)-6,7-bis(propionatesodium)-1,3,5,8-tetramethyl-4-vinylporphyrin], which Cell survival rate (MCF-7 cells; [3]) is on record?
A: Its Cell survival rate is 63.99 ± 4.42%.

Q: And the Cell survival rate (MCF-7 cells; [4])?
A: The Cell survival rate was 82.48 ± 2.24%.

Q: And the Cell survival rate (MCF-7 cells; [5])?
A: Its Cell survival rate is 65.32 ± 2.43%.

Q: And the Cell survival rate (MCF-7 cells; [6])?
A: The Cell survival rate was 47.92 ± 2.82%.

Q: What about the Cell survival rate (MCF-7 cells; [7]) of the same compound?
A: Its Cell survival rate is 49.71 ± 3.94%.

Q: What about the Cell survival rate (MCF-7 cells; [8]) of the same compound?
A: The Cell survival rate was 71.23 ± 1.76%.

Q: What about the Cell survival rate (MCF-7 cells; [9]) of the same compound?
A: The Cell survival rate was 54.13 ± 2.04%.

Q: What about the Cell survival rate (MCF-7 cells; [10]) of the same compound?
A: The Cell survival rate was 45.96 ± 1.76%.

Q: And the Cell survival rate (MCF-7 cells; [11])?
A: The Cell survival rate was 46.98 ± 2.67%.

Q: What about the Cell survival rate (MCF-7 cells; [12]) of the same compound?
A: Its Cell survival rate is 60.81 ± 1.04%.

Q: What about the Cell survival rate (MCF-7 cells; [13]) of the same compound?
A: Its Cell survival rate is 50.88 ± 1.02%.

Q: And the Cell survival rate (MCF-7 cells; [14])?
A: The Cell survival rate was 41.69 ± 1.02%.

Q: And the Cell survival rate (MCF-7 cells; [15])?
A: Its Cell survival rate is 44.28 ± 1.07%.

Q: And the Cell survival rate (SGC7901 cells; [16])?
A: The Cell survival rate was 100.39 ± 0.20%.

Q: What about the Cell survival rate (SGC7901 cells; [17]) of the same compound?
A: Its Cell survival rate is 90.25 ± 2.16%.

Q: What about the Cell survival rate (SGC7901 cells; [18]) of the same compound?
A: The Cell survival rate was 92.41 ± 0.63%.

Q: And the Cell survival rate (SGC7901 cells; [3])?
A: Its Cell survival rate is 92.26 ± 1.16%.

Q: What about the Cell survival rate (SGC7901 cells; [4]) of the same compound?
A: Its Cell survival rate is 99.22 ± 1.37%.

Q: And the Cell survival rate (SGC7901 cells; [5])?
A: The Cell survival rate was 91.19 ± 2.89%.

Q: And the Cell survival rate (SGC7901 cells; [6])?
A: Its Cell survival rate is 92.29 ± 0.15%.

Q: And the Cell survival rate (SGC7901 cells; [7])?
A: The Cell survival rate was 89.21 ± 0.24%.

Q: What about the Cell survival rate (SGC7901 cells; [8]) of the same compound?
A: The Cell survival rate was 95.80 ± 1.59%.

Q: What about the Cell survival rate (SGC7901 cells; [9]) of the same compound?
A: The Cell survival rate was 88.70 ± 1.24%.

Q: And the Cell survival rate (SGC7901 cells; [10])?
A: Its Cell survival rate is 85.49 ± 0.99%.

Q: What about the Cell survival rate (SGC7901 cells; [11]) of the same compound?
A: The Cell survival rate was 77.02 ± 0.04%.

Q: And the Cell survival rate (SGC7901 cells; [12])?
A: Its Cell survival rate is 89.77 ± 4.99%.

Q: And the Cell survival rate (SGC7901 cells; [13])?
A: Its Cell survival rate is 77.76 ± 0.22%.

Q: What about the Cell survival rate (SGC7901 cells; [14]) of the same compound?
A: Its Cell survival rate is 69.94 ± 0.56%.

Q: And the Cell survival rate (SGC7901 cells; [15])?
A: The Cell survival rate was 38.34 ± 0.13%.

Q: And the “killing effect of photodynamic therapy” value (SGC7901 cells; drug-dose and light-intensity dependent)?
A: Its value is “obvious killing effect”.

Q: And the “toxic effects of photosensitizer alone” value (4T1 transplanted tumors; 4 mg/kg alone, without irradiation, 4T1 tumor-bearing mice)?
A: Its value is “did not show significant toxic effects”.

Q: And the tumor inhibition rate (4T1 transplanted tumors; 4 mg/kg combined with light irradiation (50 J/cm^2), day 22 after treatment, 4T1 tumor-bearing mice)?
A: The tumor inhibition rate was 25.6%.

Q: And the “photosensitizer activity on growth of 4T1 transplanted tumors” value (4T1 transplanted tumors; combined with 50 J/cm^2 irradiation)?
A: The value was “obvious dose-dependent activity”.

Q: And the Cell survival rate (7721 cells; [16])?
A: Its Cell survival rate is 101.56 ± 4.08%.

Q: And the Cell survival rate (7721 cells; [17])?
A: Its Cell survival rate is 97.88 ± 4.08%.

Q: And the Cell survival rate (7721 cells; [18])?
A: The Cell survival rate was 95.52 ± 3.42%.

Q: And the Cell survival rate (7721 cells; [3])?
A: Its Cell survival rate is 94.75 ± 4.13%.

Q: What about the Cell survival rate (7721 cells; [4]) of the same compound?
A: The Cell survival rate was 100.75 ± 4.14%.

Q: And the Cell survival rate (7721 cells; [5])?
A: The Cell survival rate was 93.31 ± 3.99%.

Q: What about the Cell survival rate (7721 cells; [6]) of the same compound?
A: Its Cell survival rate is 92.36 ± 2.91%.

Q: And the Cell survival rate (7721 cells; [7])?
A: Its Cell survival rate is 91.35 ± 3.59%.

Q: And the Cell survival rate (7721 cells; [8])?
A: Its Cell survival rate is 97.51 ± 3.98%.

Q: What about the Cell survival rate (7721 cells; [9]) of the same compound?
A: Its Cell survival rate is 94.92 ± 3.80%.

Q: What about the Cell survival rate (7721 cells; [10]) of the same compound?
A: Its Cell survival rate is 92.13 ± 2.77%.

Q: And the Cell survival rate (7721 cells; [11])?
A: Its Cell survival rate is 88.59 ± 2.96%.

Q: What about the Cell survival rate (7721 cells; [12]) of the same compound?
A: The Cell survival rate was 96.52 ± 3.94%.

Q: What about the Cell survival rate (7721 cells; [13]) of the same compound?
A: The Cell survival rate was 94.42 ± 3.87%.

Q: And the Cell survival rate (7721 cells; [14])?
A: Its Cell survival rate is 90.25 ± 4.07%.

Q: And the Cell survival rate (7721 cells; [15])?
A: The Cell survival rate was 84.98 ± 1.97%.

Q: What about the “toxic and side effects” value (7721 cells; alone or in combination with light irradiation) of the same compound?
A: Its value is “no obvious toxic and side effects”.

Q: What about the “storage stability (content change by HPLC test)” value [1] of the same compound?
A: Its value is “no content change”.

Q: What about the solubility [2] of the same compound?
A: The solubility was roughly 3300 µg/mL.
